Assays:
Type in all cases: in vivo
wild oat (Avena fatua) = assay: Test D postemergence plant response
From the text: (§1) At the same time, plants selected from these crop and weed species and also kochia (Kochia scoparia), wild oat (Avena fatua), and chickweed (common chickweed, Stellaria media) were planted in pots containing Redi-Earth® planting medium (Scotts Company, 14111 Scottslawn Road, Marysville, Ohio 43041) comprising spaghnum peat moss, vermiculite, wetting agent and starter nutrients and treated with postemergence applications of test chemicals formulated in the same manner. Plants ranged in height from 2 to 18 cm (1- to 4-leaf stage) for postemergence treatments. Treated plants and controls were maintained in a greenhouse for 13 to 15 days, after which time all species were compared to controls and visually evaluated. Plant response ratings, summarized in Table D, are based on a scale of 0 to 100 where 0 is no effect and 100 is complete control. A dash (-) response means no test result.

[1] = test system: chickweed (common chickweed, Stellaria media); assay: Test D postemergence plant response; conditions: for Chickweed plant response rating: scale 0 to 100 (0 no effect, 100 complete control); for Plant response rating, Chickweed: scale 0 to 100, 0 no effect, 100 complete control
From the text: as §1

kochia (Kochia scoparia) = assay: Test D postemergence plant response; conditions: for Kochia plant response rating: scale 0 to 100 (0 no effect, 100 complete control); for Plant response rating, Kochia: scale 0 to 100, 0 no effect, 100 complete control
From the text: as §1

rice (Oryza sativa) = assay: Test C flooded paddy test plant response; conditions: Flood, 250 g ai/ha; scale of 0 to 100 where 0 is no effect and 100 is complete control; 13 to 15 days
Summary of the method: (§2)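 Scored visually on a 0–100 scale (100 = complete control) against untreated plants 13 to 15 days after treatment in the greenhouse. Compounds went into paddy water of pots flooded to 3 cm, holding 2-leaf-stage plants.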

[2] = test system: small-flower umbrella sedge (Cyperus difformis); assay: Test C flooded paddy test plant response; conditions: Flood, 250 g ai/ha; scale of 0 to 100 where 0 is no effect and 100 is complete control; 13 to 15 days
Summary of the method: as §2

[3] = test system: barnyardgrass (Echinochloa crus-galli); assay: Test C flooded paddy test plant response; conditions: Flood, 250 g ai/ha; scale of 0 to 100 where 0 is no effect and 100 is complete control; 13 to 15 days
Summary of the method: as §2

[4] = test system: ducksalad (Heteranthera limosa); assay: Test C flooded paddy test plant response; conditions: Flood, 250 g ai/ha; scale of 0 to 100 where 0 is no effect and 100 is complete control; 13 to 15 days
Summary of the method: as §2

[5] = test system: velvetleaf (Abutilon theophrasti); assay: Test D pre-/postemergence plant response
Summary of the method: (§3)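 0 = no effect, 100 = complete control: plants were scored this way by visual comparison with controls 13 to 15 days post-treatment. Application was preemergence to sown loam/sand pots or postemergence to 2–18 cm seedlings in peat-based mix.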

[6] = test system: large (Lg) crabgrass (Digitaria sanguinalis); assay: Test D pre-/postemergence plant response
Summary of the method: as §3

[7] = test system: oilseed rape (Brassica napus); assay: Test D pre-/postemergence plant response
Summary of the method: as §3

[8] = test system: yellow nutsedge (Cyperus esculentus); assay: Test D pre-/postemergence plant response
Summary of the method: as §3

[9] = test system: winter wheat (Triticum aestivum); assay: Test D pre-/postemergence plant response
Summary of the method: as §3

soybean (Glycine max) = assay: Test D pre-/postemergence plant response
Summary of the method: as §3

[10] = test system: johnsongrass (Sorghum halepense); assay: Test D pre-/postemergence plant response
Summary of the method: as §3

[11] = 31 g ai/ha, scale 0 to 100 (0 no effect, 100 complete control)
[12] = 62 g ai/ha, scale 0 to 100, 0 no effect, 100 complete control
[13] = 125 g ai/ha, scale 0 to 100, 0 no effect, 100 complete control
[14] = Postemergence, 31 g ai/ha, scale 0 to 100 (0 no effect, 100 complete control)
[15] = Postemergence, 62 g ai/ha, scale 0 to 100, 0 no effect, 100 complete control
[16] = Postemergence, 125 g ai/ha, scale 0 to 100, 0 no effect, 100 complete control
[17] = Preemergence, 16 g ai/ha, scale 0 to 100 (0 no effect, 100 complete control)
[18] = Preemergence, 31 g ai/ha, scale 0 to 100 (0 no effect, 100 complete control)
[19] = Preemergence, 62 g ai/ha, scale 0 to 100 (0 no effect, 100 complete control)
[20] = Postemergence, 16 g ai/ha, scale 0 to 100 (0 no effect, 100 complete control)

## FC(F)c1cc(-c2c(Cl)cccc2Oc2ncc(Cl)cn2)no1 [Compound 179]
Wild oat (Avena fatua); 16 g ai/ha
  Plant response rating (scale 0 to 100), Oat, Wild: 0
Wild oat (Avena fatua); [11]
  Oat, Wild plant response rating: 5
Wild oat (Avena fatua); [12]
  Oat, Wild plant response rating: 15
Wild oat (Avena fatua); [13]
  Plant response rating, Oat, Wild: 20
[1]; 16 g ai/ha
  Plant response rating (scale 0 to 100), Chickweed: 70
[1]; 31 g ai/ha
  Chickweed plant response rating: 80
[1]; 62 g ai/ha
  Plant response rating, Chickweed: 95
[1]; 125 g ai/ha
  Plant response rating, Chickweed: 95
Kochia (Kochia scoparia); 16 g ai/ha
  Plant response rating (scale 0 to 100), Kochia: 90
Kochia (Kochia scoparia); 31 g ai/ha
  Kochia plant response rating: 100
Kochia (Kochia scoparia); 62 g ai/ha
  Plant response rating, Kochia: 100
Kochia (Kochia scoparia); 125 g ai/ha
  Plant response rating, Kochia: 100
Rice (Oryza sativa)
  Rice plant response rating: 40
[2]
  Sedge, Umbrella plant response rating: 80
[3]
  Barnyardgrass plant response rating: 0
[4]
  Ducksalad plant response rating: 80
[5]; Postemergence, 16 g ai/ha
  Plant response rating (scale 0 to 100), Velvetleaf: 15
[5]; [14]
  Velvetleaf plant response rating: 20
[5]; [15]
  Velvetleaf plant response rating: 30
[5]; [16]
  Plant response rating, Velvetleaf: 70
[5]; Preemergence, 125 g ai/ha
  Plant response rating (scale 0 to 100), Velvetleaf: 100
[5]; [17]
  Plant response rating, Velvetleaf: 15
[5]; [18]
  Plant response rating, Velvetleaf: 65
[5]; [19]
  Plant response rating, Velvetleaf: 85
[6]; Postemergence, 16 g ai/ha
  Plant response rating (scale 0 to 100), Crabgrass, Large: 5
[6]; [14]
  Crabgrass, Large plant response rating: 5
[6]; [15]
  Plant response rating, Crabgrass, Large: 5
[6]; [16]
  Plant response rating, Crabgrass, Large: 5
[6]; Preemergence, 125 g ai/ha
  Plant response rating (scale 0 to 100), Crabgrass, Large: 100
[6]; [17]
  Plant response rating, Crabgrass, Large: 10
[6]; [18]
  Plant response rating, Crabgrass, Large: 65
[6]; [19]
  Plant response rating, Crabgrass, Large: 75
[7]; Postemergence, 16 g ai/ha
  Plant response rating (scale 0 to 100), Oilseed Rape: 40
[7]; [14]
  Oilseed Rape plant response rating: 75
[7]; [15]
  Oilseed Rape plant response rating: 85
[7]; [16]
  Plant response rating, Oilseed Rape: 100
[7]; Preemergence, 125 g ai/ha
  Plant response rating (scale 0 to 100), Oilseed Rape: 100
[7]; [17]
  Plant response rating, Oilseed Rape: 30
[7]; [18]
  Plant response rating, Oilseed Rape: 95
[8]; Postemergence, 16 g ai/ha
  Plant response rating (scale 0 to 100), Nutsedge, Yellow: 5
[8]; [14]
  Nutsedge, Yellow plant response rating: 5
[8]; [15]
  Nutsedge, Yellow plant response rating: 5
[8]; [16]
  Plant response rating, Nutsedge, Yellow: 5
[8]; Preemergence, 125 g ai/ha
  Plant response rating (scale 0 to 100), Nutsedge, Yellow: 25
[8]; [17]
  Plant response rating, Nutsedge, Yellow: 0
[8]; [18]
  Plant response rating, Nutsedge, Yellow: 0
[8]; [19]
  Plant response rating, Nutsedge, Yellow: 0
[9]; Postemergence, 16 g ai/ha
  Plant response rating (scale 0 to 100), Wheat: 5
[9]; [14]
  Wheat plant response rating: 10
[9]; [15]
  Wheat plant response rating: 30
[9]; [16]
  Plant response rating, Wheat: 35
[9]; Preemergence, 125 g ai/ha
  Plant response rating (scale 0 to 100), Wheat: 35
[9]; [17]
  Plant response rating, Wheat: 0
[9]; [18]
  Plant response rating, Wheat: 0
[9]; [19]
  Plant response rating, Wheat: 0
Soybean (Glycine max); Postemergence, 16 g ai/ha
  Plant response rating (scale 0 to 100), Soybean: 25
Soybean (Glycine max); [14]
  Soybean plant response rating: 45
Soybean (Glycine max); [15]
  Soybean plant response rating: 70
Soybean (Glycine max); [16]
  Plant response rating, Soybean: 70
Soybean (Glycine max); Preemergence, 125 g ai/ha
  Plant response rating (scale 0 to 100), Soybean: 45
Soybean (Glycine max); [17]
  Plant response rating, Soybean: 0
Soybean (Glycine max); [18]
  Plant response rating, Soybean: 0
Soybean (Glycine max); [19]
  Plant response rating, Soybean: 30
[10]; Postemergence, 16 g ai/ha
  Plant response rating (scale 0 to 100), Johnsongrass: 0
[10]; [14]
  Johnsongrass plant response rating: 5
[10]; [15]
  Plant response rating, Johnsongrass: 5
[10]; [16]
  Plant response rating, Johnsongrass: 5
[10]; Preemergence, 125 g ai/ha
  Plant response rating (scale 0 to 100), Johnsongrass: 65
[10]; [17]
  Plant response rating, Johnsongrass: 0
[10]; [18]
  Plant response rating, Johnsongrass: 0
[10]; [19]
  Plant response rating, Johnsongrass: 20

## Cn1nnc(-c2ccccc2Oc2ncc(Br)cn2)n1 [Compound 50]
Wild oat (Avena fatua); 16 g ai/ha, scale 0 to 100 (0 no effect, 100 complete control)
  Oat, Wild plant response rating: 0
Wild oat (Avena fatua); [11]
  Oat, Wild plant response rating: 0
Wild oat (Avena fatua); [12]
  Plant response rating, Oat, Wild: 0
Wild oat (Avena fatua); [13]
  Plant response rating, Oat, Wild: 0
[1]; 16 g ai/ha
  Chickweed plant response rating: 0
[1]; 31 g ai/ha
  Chickweed plant response rating: 0
[1]; 62 g ai/ha
  Plant response rating, Chickweed: 5
[1]; 125 g ai/ha
  Plant response rating, Chickweed: 5
Kochia (Kochia scoparia); 16 g ai/ha
  Kochia plant response rating: 0
Kochia (Kochia scoparia); 31 g ai/ha
  Kochia plant response rating: 0
Kochia (Kochia scoparia); 62 g ai/ha
  Plant response rating, Kochia: 5
Kochia (Kochia scoparia); 125 g ai/ha
  Plant response rating, Kochia: 15
Rice (Oryza sativa)
  Rice plant response rating: 0
[2]
  Sedge, Umbrella plant response rating: 0
[3]
  Barnyardgrass plant response rating: 0
[4]
  Ducksalad plant response rating: 30
[5]; [20]
  Velvetleaf plant response rating: 0
[5]; [14]
  Velvetleaf plant response rating: 0
[5]; [15]
  Plant response rating, Velvetleaf: 0
[5]; [16]
  Plant response rating, Velvetleaf: 40
[6]; [20]
  Crabgrass, Large plant response rating: 0
[6]; [14]
  Crabgrass, Large plant response rating: 0
[6]; [15]
  Plant response rating, Crabgrass, Large: 0
[6]; [16]
  Plant response rating, Crabgrass, Large: 5
[7]; [20]
  Oilseed Rape plant response rating: 5
[7]; [14]
  Oilseed Rape plant response rating: 5
[7]; [15]
  Plant response rating, Oilseed Rape: 10
[7]; [16]
  Plant response rating, Oilseed Rape: 30
[9]; [20]
  Wheat plant response rating: 0
[9]; [14]
  Wheat plant response rating: 0
[9]; [15]
  Plant response rating, Wheat: 5
[9]; [16]
  Plant response rating, Wheat: 5
Soybean (Glycine max); [20]
  Soybean plant response rating: 5
Soybean (Glycine max); [14]
  Soybean plant response rating: 5
Soybean (Glycine max); [15]
  Plant response rating, Soybean: 20
Soybean (Glycine max); [16]
  Plant response rating, Soybean: 40
[10]; [20]
  Johnsongrass plant response rating: 0
[10]; [14]
  Johnsongrass plant response rating: 0
[10]; [15]
  Plant response rating, Johnsongrass: 0
[10]; [16]
  Plant response rating, Johnsongrass: 0
